Tests used:
Assay type in all cases: cell-based
HCT-116 (KRAS-G13D) = experiment: Anti-proliferation assay on HCT-116; conditions: Homo sapiens, HCT-116; 72 h treatment; average with SD (n = 3, duplicate)
Method: (§1) Ba/F3-parental, OCI-AML3, U397 cells were purchased from DSMZ. MDA-MB-231, HCT-116, AsPC-1, H358, HT-29, SW480, and DU-145 cells were obtained from KCLB. MDA-MB-468 cells were obtained from ATCC. All cells were maintained in RPMI with 10% FBS and antibiotics. Cells were grown in a humidified 5% CO2 incubator at 37°C. Ba/F3-parental cells were grown in the presence of 10 ng/ml IL-3. NRAS-G12D or NRAS-G12V transformed Ba/F3 cell lines (Ba/F3-NRAS-G12D, and Ba/F3-NRAS-G12V, respectively) were cultured without IL-3, which were established by the procedure described as previously ([30]).
(§2) Approximately 3.0 × 10^3 cells/well were seeded in a 96-well cell culture plate. After stabilization, 1/3 serially diluted compound in DMSO was treated to the cell. […] All GI50 values were obtained in duplicate with three independent assays and averages with standard deviation are presented.

[1] = tested on: cleaved PARP in cancer cells harboring mtRAS; experiment: Western blot, cleaved PARP in cancer cells harboring mtRAS; conditions: 1 μM, 24 h
Method: (§3) Approximately 1 × 10^6 cells per well were seeded in a 6-well cell culture plate. After cell adhesion, each compounds were treated for 2 h with indicated concentration and conducted brief washing twice by ice-cold PBS. Cells were lysed by NP40 buffer (50 mM Tris–HCl pH 7.4, 1% NP40, 2 mM EDTA, 150 mM NaCl) in the presence of protease inhibitor cocktail (Roche, #11873580001) and phosphatase inhibitor cocktail (Roche, #04906837001). Each sample was loaded with same amount of total protein and separated by SDS-PAGE gel. After transferred to nitrocellulose membrane, blocking with 5% skim milk (in TBS/T) was followed. […] Chemiluminescence signals were detected by ImageQuant™ LAS 4000 (GE Healthcare).
Figure 4 The effects of (A) SIJ1795 and (B) SIJ1772 on apoptosis induction in cancer cells harboring mtRAS. […] (C) Apoptotic cell population (annexin V-positive) was determined by flow cytometry analysis (n = 3). […] Statistical significance was determined using a one-way ANOVA analysis (*p < 0.05, **p < 0.01, ***p < 0.001).

U937 (KRAS, NRAS-wt) = experiment: Anti-proliferation assay on U937; conditions: Homo sapiens, U-937; 72 h treatment; average with SD (n = 3, duplicate)
Method: as §1, §2

[2] = tested on: cancer cells harboring mtRAS; experiment: Colony formation assay (2D clonogenic assay); conditions: 0.1 μM, 14 days
Method: Colony formation assay was conducted for 2D clonogenic assay. Approximately 1 × 10^3 cells/well were seeded in 6-well plate. After cellular attachment, indicated concentrations of compounds were treated for 14 days at 37°C. Colonies were stained by crystal violet solution for 30 min. The total area of each well was observed without magnification, and the number of colonies of each well were accessed using ImageJ software (n = 3).
Figure 7 (A–F) Colony formation assay results evaluating the effects of SIJ1795 and SIJ1772 on clonogenic abilities of on cancer cells harboring mtRAS. Cells were incubated with indicated compounds (0.01 µM or 0.1 µM) for 14 days. After staining with crystal violet, colonies were photographed without magnification. (G–L) Number of colonies (% of control) upon treatment with indicated compounds at 0.1 µM concentration were determined by ImageJ (n = 3, respectively). Statistical significance was calculated by using a one-way ANOVA analysis (**p < 0.01, ***p < 0.001, ****p < 0.0001).

[3] = tested on: cleaved PARP in Ba/F3-NRAS-G12D and Ba/F3-NRAS-G12V cells; experiment: Western blot, cleaved PARP in Ba/F3 cells transformed with mtRAS; conditions: 1 μM, 24 h
Method: as §3
Figure 3 (A, B) The effects of SIJ1795 and SIJ1772 on apoptosis induction in Ba/F3 cells transformed with mtRAS (NRAS-G12D and NRAS-G12V). […] (C) Apoptotic cell population (annexin V-positive) was determined by flow cytometry analysis (n = 3). […] Statistical significance was calculated by a one-way ANOVA analysis (**p < 0.01, ***p < 0.001).

GI50 (HCT-116 (KRAS-G13D))	GI50 (U937 (KRAS, NRAS-wt))	Structure (SMILES)	level of cleaved PARP in cancer cells harboring mtRAS [1]	colony formation [2]	cleaved PARP level in Ba/F3-NRAS-G12D and Ba/F3-NRAS-G12V cells [3]
38 ± 28 nM	9590 ± 832 nM	Cc1ccc(NC(=O)c2cccc(C(F)(F)F)c2)cc1N1Cc2cnc(Nc3cnn(C4CCN(S(C)(=O)=O)CC4)c3)nc2N(C)C1=O [SIJ1772, N-(4-Methyl-3-(1-methyl-7-((1-(1-(methylsulfonyl)piperidin-4-yl)-1H-pyrazol-4-yl)amino)-2-oxo-1,4-dihydropyrimido[4,5-d]pyrimidin-3(2H)-yl)phenyl)-3-(trifluoromethyl)benzamide]	notably increased	suppressed	increased cleaved PARP level
33 ± 6 nM	1000 ± 126 nM	CCN1CCN(c2cccc(Nc3ncc4c(n3)N(C)C(=O)N(c3cc(NC(=O)c5cccc(C(F)(F)F)c5)ccc3C)C4)c2)CC1 [SIJ1795, N-(3-(7-((3-(4-Ethylpiperazin-1-yl)phenyl)amino)-1-methyl-2-oxo-1,4-dihydropyrimido[4,5-d]pyrimidin-3(2H)-yl)-4-methylphenyl)-3-(trifluoromethyl)benzamide]	notably increased	suppressed	increased cleaved PARP level

— PMC8695447, “Novel Small Molecules Capable of Blocking mtRAS-Signaling Pathway” (Frontiers in Oncology, 2021)
